Experimental data reported in article PMC2845880 (Bioorganic & medicinal chemistry letters, 2010).

Experiments:
[1] = test system: T. b. brucei, T. cruzi, Leishmania infantum, Plasmodium falciparum; assay: In vitro biological evaluation against protozoa; type: cell-based; conditions: in vitro protozoa panel
TbMCA2 = target: T1, TbMCA2 (Trypanosoma brucei brucei, UniProt Q8T8E7); assay: In vitro inhibition of TbMCA2; type: biochemical; conditions: P1 tail modification / peptoid backbone
T1 sequence (Q8T8E7 1-347): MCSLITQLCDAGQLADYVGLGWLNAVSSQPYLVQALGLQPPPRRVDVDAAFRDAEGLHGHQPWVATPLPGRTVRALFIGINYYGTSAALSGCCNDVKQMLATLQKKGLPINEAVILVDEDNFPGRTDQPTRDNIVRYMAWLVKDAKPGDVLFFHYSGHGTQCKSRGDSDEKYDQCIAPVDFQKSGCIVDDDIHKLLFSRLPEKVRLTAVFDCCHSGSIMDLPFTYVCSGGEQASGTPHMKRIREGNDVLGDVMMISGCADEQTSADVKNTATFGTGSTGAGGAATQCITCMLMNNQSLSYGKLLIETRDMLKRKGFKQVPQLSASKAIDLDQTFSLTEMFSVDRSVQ

[2] = test system: human lung fibroblasts (MRC-5); assay: Cytotoxicity on human lung fibroblasts; type: cell-based
[3] = test system: Plasmodium falciparum (ring stage and schizont); assay: In vitro antiparasitic evaluation against Plasmodium falciparum; type: cell-based

Structure (SMILES)	Antiparasitic activity (in words) [1]	Antiparasitic activity against P. falciparum (in words) [3]	further results
N#C[C@H](CCCNC(=N)N)NC(=O)OCc1ccccc1 [Compound 1]	no antiparasitic activity	–	–
N#C[C@H](Cc1ccc(N)cc1)NC(=O)OCc1ccccc1 [Compound 2]	–	–	Activity on TbMCA2 (in words) (TbMCA2): inactive
N#C[C@H](Cc1ccc(NC(=N)N)cc1)NC(=O)OCc1ccccc1 [Compound 3]	–	–	Activity on TbMCA2 (in words) (TbMCA2): inactive
N=C(N)NCCC[C@H](NC(=O)OCc1ccccc1)C(=O)c1nc2ccccc2s1 [Compound 11]	–	very modest	Cytotoxicity (in words) [2]: without cytotoxicity
Cn1c(C(=O)[C@H](CCCNC(=N)N)NC(=O)OCc2ccccc2)nc2ccccc21 [Compound 14]	–	very modest	–
N=C(N)NCCC[C@@H](/C=C/S(=O)(=O)c1ccccc1)NC(=O)OCc1ccccc1 [Compound 15]	–	modest antiparasitic activity	–
NCCCC[C@H](NC(=O)OCc1ccccc1)C(=O)c1nc2ccccc2s1 [Compound 16]	modest antiparasitic activities	–	–
N=C(N)NCCCC[C@H](NC(=O)OCc1ccccc1)C(=O)c1nc2ccccc2s1 [Compound 17]	modest antiparasitic activities	–	–
